Patent publication US11192894B2, “Cell impermeable coelenterazine analogues” (PROMEGA CORPORATION, priority 2016, dated 2021)

The compounds below were run on NanoLuc:KDR (assay: Cell-based luciferase assay, HEK293 cells expressing NanoLuc:KDR (NanoLuc on the cell surface), ± extracellular inhibitor JRW-0344). Conditions: 10 μM substrate ± 20 μM inhibitor, FIG. 2A.
Method: (§1) FIGS. 2A-2D show extracellular bioluminescent activity of exemplary compounds in HEK293 cells. HEK293 cells were transfected with two different membrane bound NANOLUC® fusions: 1) NanoLuc:KDR, presenting NanoLuc on the outside of the membrane; 2) KDR:NanoLuc, presenting NanoLuc on the inside of the membrane. The cell impermeable NANOLUC® inhibitor JRW-0344 (disclosed in U.S. Ser. No. 15/192,420 to Duellman et al., “THIENOPYRROLE COMPOUNDS AND USES THEREOF,” filed Jun. 24, 2016), was added to the cells to inhibit extracellular bioluminescent activity.
(§2) HEK293 cells were maintained in DMEM containing 100 IU/ml penicillin, 100 μg/ml streptomycin, and 10% fetal calf serum at 37° C. in 5% CO2. Dulbecco's modified eagle medium (DMEM), Opti-MEM, Penicillin/Streptomycin, and Trypsin-EDTA are purchased from Life Technologies (Carlsbad). Fetal calf serum (FBS) is purchased from HyClone (GE Healthcare). Microtiter plates were purchased from Corning.
(§3) HEK293 cells were transiently transfected with two different integral membrane NanoLuc fusion proteins: 1) NanoLuc:KDR, presenting NanoLuc on the cell surface; 2) KDR:NanoLuc, presenting NanoLuc in the interior of the cell. After 24 hours, transfected cells were collected, resuspended in OptiM at 200,000 cell/ml and plated into wells of white, 96-well plates at 100 μL/well. For luminescent measurements, cells were treated with the indicated substrates at a final concentration of 10 μM or 20 μM in the presence or absence of 20 μM cell impermeable NanoLuc inhibitor JRW-0344. The luminescent signal was analyzed 3 minutes after substrate addition using a GLOMAX® Discover multimode detection plate reader (Promega).

SMILES | Difference in RLU's in the presence and absence of the extracellular inhibitor
O=C(O)CCCCCOc1cccc(Cc2nc3c(Cc4ccccc4)[nH]c(-c4ccccc4)cn-3c2=O)c1 [JRW-0684, 6-(3-((8-benzyl-3-oxo-6-phenyl-3,7-dihydroimidazo[1,2-a]pyrazin-2-yl)methyl)phenoxy)hexanoic acid] | Small differences in RLU's
O=c1c(Cc2ccc(OCCCCCCBr)c(Cl)c2)nc2c(Cc3ccccc3)[nH]c(-c3ccccc3)cn1-2 [JRW-0720, 8-benzyl-2-(4-((6-bromohexyl)oxy)-3-chlorobenzyl)-6-phenylimidazo[1,2-a]pyrazin-3(7H)-one] | Small differences in RLU's

Each compound was assayed against purified NANOLUC® Luciferase (Oplophorus gracilirostris, UniProt Q9GV45, A31E/A60N/A81I/F95D/I117V/K70R/L54V/L99Q/M102K/N193R/P142E/Q151K/Q38R/Q45L/V71I/Y165I) (assay: not given). Conditions: relative value, furimazine set to 1; purified NanoLuc; initial light output three minutes after substrate addition.
Format: biochemical
Method: Each compound to be screened was dissolved in DMSO (5 mM) and then further diluted to 100 uM in NANO-GLO® Luciferase Assay Buffer. Each diluted substrate was then combined in equal volumes with purified NANOLUC® Luciferase diluted into CO2 independent media+10% FBS. Initial light output for each substrate was measured in a GloMax®-Multi+ luminometer three minutes after substrate addition and then at five minute intervals as a means to determine signal half-life. […] Km was calculated using GraphPad Prism using non linear Michaelis-Menten regression.

purified NANOLUC® Luciferase, sequence (Q9GV45 28-196 with tags or gaps with the stated changes limits assumed): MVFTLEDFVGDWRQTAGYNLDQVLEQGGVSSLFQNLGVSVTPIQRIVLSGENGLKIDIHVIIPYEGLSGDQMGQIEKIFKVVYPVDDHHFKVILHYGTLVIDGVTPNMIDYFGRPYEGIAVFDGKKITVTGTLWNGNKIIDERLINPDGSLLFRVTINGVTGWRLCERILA

SMILES | RLU at 100 uM
O=c1c(Cc2ccc(OCCCCCCS(=O)(=O)OCC(Cl)(Cl)Cl)c(Cl)c2)nc2c(Cc3ccccc3)[nH]c(-c3ccccc3)cn1-2 [JRW-0665, 2,2,2-trichloroethyl 6-(4-((8-benzyl-3-oxo-6-phenyl-3,7-dihydroimidazo[1,2-a]pyrazin-2-yl)methyl)-2-chlorophenoxy)hexane-1-sulfonate] | 0.0055
CC(C)(C)OC(=O)CCCCCOc1cccc(Cc2nc3c(Cc4ccccc4)[nH]c(-c4ccccc4)cn-3c2=O)c1 [JRW-0682, tert-butyl 6-(3-((8-benzyl-3-oxo-6-phenyl-3,7-dihydroimidazo[1,2-a]pyrazin-2-yl)methyl)phenoxy)hexanoate] | 0.0024
O=C(O)CCCCCOc1cccc(Cc2nc3c(Cc4ccccc4)[nH]c(-c4ccccc4)cn-3c2=O)c1 [JRW-0684, 6-(3-((8-benzyl-3-oxo-6-phenyl-3,7-dihydroimidazo[1,2-a]pyrazin-2-yl)methyl)phenoxy)hexanoic acid] | 0.0057
O=c1c(Cc2cccc(OCCCCCCBr)c2)nc2c(Cc3ccccc3)[nH]c(-c3ccccc3)cn1-2 [JRW-0692, 8-benzyl-2-(3-((6-bromohexyl)oxy)benzyl)-6-phenylimidazo[1,2-a]pyrazin-3(7H)-one] | 0.0025
O=c1c(Cc2cccc(OCCCS(=O)(=O)[O-])c2)nc2c(Cc3ccccc3)[nH]c(-c3ccccc3)cn1-2.[Na+] [JRW-0713, sodium 3-(3-((8-benzyl-3-oxo-6-phenyl-3,7-dihydroimidazo[1,2-a]pyrazin-2-yl)methyl)phenoxy)propane-1-sulfonate] | 0.00081
CC(C)(C)OC(=O)CCCOc1cccc(Cc2nc3c(Cc4ccccc4)[nH]c(-c4ccccc4)cn-3c2=O)c1 [JRW-0714, tert-butyl 4-(3-((8-benzyl-3-oxo-6-phenyl-3,7-dihydroimidazo[1,2-a]pyrazin-2-yl)methyl)phenoxy)butanoate] | 0.0013
O=C(O)CCCOc1cccc(Cc2nc3c(Cc4ccccc4)[nH]c(-c4ccccc4)cn-3c2=O)c1 [JRW-0716, 4-(3-((8-benzyl-3-oxo-6-phenyl-3,7-dihydroimidazo[1,2-a]pyrazin-2-yl)methyl)phenoxy)butanoic acid] | 0.0022
CC(C)(C)OC(=O)CCCCCCCOc1cccc(Cc2nc3c(Cc4ccccc4)[nH]c(-c4ccccc4)cn-3c2=O)c1 [JRW-0719, tert-butyl 8-(3-((8-benzyl-3-oxo-6-phenyl-3,7-dihydroimidazo[1,2-a]pyrazin-2-yl)methyl)phenoxy)octanoate] | 0.0011
O=c1c(Cc2ccc(OCCCCCCBr)c(Cl)c2)nc2c(Cc3ccccc3)[nH]c(-c3ccccc3)cn1-2 [JRW-0720, 8-benzyl-2-(4-((6-bromohexyl)oxy)-3-chlorobenzyl)-6-phenylimidazo[1,2-a]pyrazin-3(7H)-one] | 0.0085
O=C(O)CCCCCCCOc1cccc(Cc2nc3c(Cc4ccccc4)[nH]c(-c4ccccc4)cn-3c2=O)c1 [JRW-0722, 8-(3-((8-benzyl-3-oxo-6-phenyl-3,7-dihydroimidazo[1,2-a]pyrazin-2-yl)methyl)phenoxy)octanoic acid] | 0.023
CC(C)(C)OC(=O)CCCCCOc1ccc(Cc2nc3c(Cc4ccccc4)[nH]c(-c4ccccc4)cn-3c2=O)cc1Cl [JRW-0725, tert-butyl 6-(4-((8-benzyl-3-oxo-6-phenyl-3,7-dihydroimidazo[1,2-a]pyrazin-2-yl)methyl)-2-chlorophenoxy)hexanoate] | 0.013
CC(=O)N[C@@H](CC(=O)O)C(=O)N[C@@H](CC(=O)O)C(=O)N[C@@H](CC(=O)O)C(=O)NCCCCCCOc1cccc(Cc2nc3c(Cc4ccccc4)[nH]c(-c4ccccc4)cn-3c2=O)c1 [JRW-0741, (S)-3-acetamido-4-(((S)-1-(((S)-1-((6-(3-((8-benzyl-3-oxo-6-phenyl-3,7-dihydroimidazo[1,2-a]pyrazin-2-yl)methyl)phenoxy)hexyl)amino)-3-carboxy-1-oxopropan-2-yl)amino)-3-carboxy-1-oxopropan-2-yl)amino)-4-oxobutanoic acid] | 0.0057
CC(C)(C)OC(=O)c1cccc(-c2cn3c(=O)c(Cc4ccco4)nc-3c(Cc3ccccc3)[nH]2)c1 [JRW-0755, tert-butyl 3-(8-benzyl-2-(furan-2-ylmethyl)-3-oxo-3,7-dihydroimidazo[1,2-a]pyrazin-6-yl)benzoate] | 0.000043
O=c1c(Cc2ccc(OCCCCCCCCS(=O)(=O)[O-])c(Cl)c2)nc2c(Cc3ccccc3)[nH]c(-c3ccccc3)cn1-2.[Na+] [JRW-0761, sodium 8-(4-((8-benzyl-3-oxo-6-phenyl-3,7-dihydroimidazo[1,2-a]pyrazin-2-yl)methyl)-2-chlorophenoxy)octane-1-sulfonate] | 0.075
O=c1c(Cc2ccc(OCCCCCCCCCCS(=O)(=O)[O-])c(Cl)c2)nc2c(Cc3ccccc3)[nH]c(-c3ccccc3)cn1-2.[Na+] [JRW-0765, sodium 10-(4-((8-benzyl-3-oxo-6-phenyl-3,7-dihydroimidazo[1,2-a]pyrazin-2-yl)methyl)-2-chlorophenoxy)decane-1-sulfonate] | 0.011
O=c1c(Cc2ccc(Cl)c(OCCCCCCS(=O)(=O)[O-])c2)nc2c(Cc3ccccc3)[nH]c(-c3ccccc3)cn1-2.[Na+] [JRW-0766, sodium 6-(5-((8-benzyl-3-oxo-6-phenyl-3,7-dihydroimidazo[1,2-a]pyrazin-2-yl)methyl)-2-chlorophenoxy)hexane-1-sulfonate] | 0.015
O=c1c(Cc2cc(F)c(OCCCCCCS(=O)(=O)[O-])c(F)c2)nc2c(Cc3ccccc3)[nH]c(-c3ccccc3)cn1-2.[Na+] [JRW-0771, sodium 6-(4-((8-benzyl-3-oxo-6-phenyl-3,7-dihydroimidazo[1,2-a]pyrazin-2-yl)methyl)-2,6-difluorophenoxy)hexane-1-sulfonate] | 0.15
O=C(O)c1ccc(-c2cn3c(=O)c(Cc4ccco4)nc-3c(Cc3ccccc3)[nH]2)cc1 [JRW-0790, 4-(8-benzyl-2-(furan-2-ylmethyl)-3-oxo-3,7-dihydroimidazo[1,2-a]pyrazin-6-yl)benzoic acid] | 0.0029
NCCCCCCOc1ccc(Cc2nc3c(Cc4ccccc4)[nH]c(-c4ccccc4)cn-3c2=O)cc1F [JRW-0801, 2-(4-((6-aminohexyl)oxy)-3-fluorobenzyl)-8-benzyl-6-phenylimidazo[1,2-a]pyrazin-3(7H)-one] | 0.0073
O=c1c(Cc2ccc(OCCCCCCS(=O)(=O)O)c(Cl)c2)nc2c(Cc3ccccc3)[nH]c(-c3cccc(O)c3)cn1-2 [JRW-0805, 6-(4-((8-benzyl-6-(3-hydroxyphenyl)-3-oxo-3,7-dihydroimidazo[1,2-a]pyrazin-2-yl)methyl)-2-chlorophenoxy)hexane-1-sulfonic acid] | 0.17
CC(=O)N[C@@H](CC(=O)O)C(=O)N[C@@H](CC(=O)O)C(=O)N[C@@H](CC(=O)O)C(=O)NCCCCCCOc1ccc(Cc2nc3c(Cc4ccccc4)[nH]c(-c4ccccc4)cn-3c2=O)cc1F [JRW-0806, (S)-3-acetamido-4-(((S)-1-(((S)-1-((6-(4-((8-benzyl-3-oxo-6-phenyl-3,7-dihydroimidazo[1,2-a]pyrazin-2-yl)methyl)-2-fluorophenoxy)hexyl)amino)-3-carboxy-1-oxopropan-2-yl)amino)-3-carboxy-1-oxopropan-2-yl)amino)-4-oxobutanoic acid] | 0.021

The compounds below were run on KDR:NanoLuc (assay: Cell-based luciferase assay, HEK293 cells expressing KDR:NanoLuc (NanoLuc in the interior of the cell), ± extracellular inhibitor JRW-0344). Conditions: HEK293 expressing KDR:Nluc; 10 μM substrate ± 20 μM JRW-0344; FIG. 2C.
Method: as §1, §2, §3

SMILES | RLU and effect of the extracellular inhibitor
O=C(O)CCCCCOc1cccc(Cc2nc3c(Cc4ccccc4)[nH]c(-c4ccccc4)cn-3c2=O)c1 [JRW-0684, 6-(3-((8-benzyl-3-oxo-6-phenyl-3,7-dihydroimidazo[1,2-a]pyrazin-2-yl)methyl)phenoxy)hexanoic acid] | not affected by the extracellular inhibitor
O=c1c(Cc2ccc(OCCCCCCBr)c(Cl)c2)nc2c(Cc3ccccc3)[nH]c(-c3ccccc3)cn1-2 [JRW-0720, 8-benzyl-2-(4-((6-bromohexyl)oxy)-3-chlorobenzyl)-6-phenylimidazo[1,2-a]pyrazin-3(7H)-one] | not affected by the extracellular inhibitor
